Assay in all cases: biochemical
One experiment has as its target DR4w4 (DRB1*0401) (Homo sapiens, UniProt P01903+P01911, A100K/A169T/F76Y/I96L/K127E/L162R/M171V/N62H/P40V/Q125Y/R42H/S133A/S149N/S66Y/V115G/V209L/W38E). In kind it is binding.
For a further experiment, the target named is DRB1*0301 (Homo sapiens, UniProt P01903+P01911, A100K/A102G/A103R/A169T/F55Y/I96L/K41T/L162R/M171V/P40S/Q125H/Q178H/Q39Y/R42S/S66N/T106N/T262R/W38E/Y61H). Format: binding.
The target in another experiment is DRB1*0802 (Homo sapiens, UniProt P01903+P01911, A100R/A103L/A169T/F76Y/H45Y/I96F/K41T/L162R/M171V/P40S/Q125H/Q178H/Q39Y/Q99D/R218S/R42G/S66Y/V115G/W38E). Format: binding.
Another experiment deals with DRB1*0901 (Homo sapiens, UniProt P01903+P01911, A100R/A103E/D57H/D86V/F55Y/F60I/F76Y/I96F/K127E/L162R/M171V/P40D/Q125H/Q99R/R33Q/R42F/S133A/S66N/T210M/V115G/W38K/Y107V/Y59G/Y89S). Format: binding.
Another experiment deals with DRB1*1302 (Homo sapiens, UniProt P01903+P01911, A100E/A169T/K41T/L162R/M171V/P40S/Q125H/Q178H/Q39Y/Q99D/R42S/S66N/T262R/V115G/W38E/Y61H). Format: binding.
Sequence of DRB1*1302 (P01903 26-254 limits assumed, other chains not shown): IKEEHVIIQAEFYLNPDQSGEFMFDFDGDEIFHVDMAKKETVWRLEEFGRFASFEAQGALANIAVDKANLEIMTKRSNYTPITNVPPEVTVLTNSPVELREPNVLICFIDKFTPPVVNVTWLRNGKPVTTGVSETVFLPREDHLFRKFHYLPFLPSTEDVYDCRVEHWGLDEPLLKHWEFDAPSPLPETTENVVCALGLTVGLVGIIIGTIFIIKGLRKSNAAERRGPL
The next experiment deals with DRB1*1501 (Homo sapiens, UniProt P01903+P01911). Format: binding.
For a further experiment, the target named is DRB3*0101 (Homo sapiens, UniProt P01903+P79483). Format: binding.
A further experiment has as its target DRB4*0101 (Homo sapiens, UniProt P01903+P13762, G164S). Format: binding.
The next experiment concerns the target DRB1*1101 (Homo sapiens, UniProt P01903+P01911, A100R/A169T/A87E/I96F/K41T/L162R/M171V/P40S/Q125H/Q178H/Q39Y/Q99D/R42S/S66Y/T262R/V115G/W38E).
For another experiment, the target named is DRB5*0101 (Homo sapiens, UniProt P01903+Q30154).
The next experiment has as its target DR1 (DRB1*0101) (Homo sapiens, UniProt P01903+P01911, A100R/D57E/F55L/F60I/F76Y/I96L/L162R/M171V/P40L/Q125E/R42F/V115G/Y59C). Format: binding.
For another experiment, the target named is DR7 (DRB1*0701) (Homo sapiens, UniProt P01903+P01911, A100R/A102G/A103Q/D57E/D86V/E43K/F76Y/K127E/L162R/M171V/P40G/Q125H/Q99D/R33Q/R42Y/R54Q/S133A/S66F/T210M/V115G/Y107V/Y59L/Y89S). In kind it is binding.
A further experiment addresses DRB1*0405 (Homo sapiens, UniProt P01903+P01911, A100R/A169T/D86S/F76Y/I96L/K127E/L162R/M171V/N62H/P40V/Q125Y/R42H/S133A/S149N/S66Y/V115G/V209L/W38E). In kind it is binding.

Where two headings read alike, the source gives them in different places. No end group written: not given here.

Sequence of DRB1*0301 (P01903 26-254 limits assumed, other chains not shown): as above
Sequence of DRB1*1101 (P01903 26-254 limits assumed, other chains not shown): as above

As a reminder, the IC50 is the concentration needed to halve the response being measured. Higher therefore signals lower potency. On to `CC[C@H](C)[C@H](NC(=O)[C@@H](NC(=O)[C@@H]1CCCN1C(=O)[C@@H](NC(=O)[C@@H](NC(=O)[C@H](CC(N)=O)NC(=O)CNC(=O)[C@H](CO)NC(=O)[C@H](CS)NC(=O)[C@H](CC(C)C)NC(=O)[C@H](CCCCN)NC(=O)[C@H](CCCNC(=N)N)NC(=O)[C@H](CCCNC(=N)N)NC(=O)[C@@H](N)CCCCN)[C@@H](C)O)[C@@H](C)O)[C@@H](C)CC)C(=O)N[C@@H](Cc1c[nH]cn1)C(=O)O` [Peptide 1601.16], for which the IC50 amounted to 0.311 µM at DR4w4 (DRB1*0401); 5.94 µM on DRB1*0301; 4.74 µM against DRB1*0802; 0.061 µM against DRB1*0901; 0.0076 µM on DRB1*1302; 9.33 µM against DRB1*1501. The IC50 on DRB3*0101 is above 20 µM; on DRB4*0101, above 20 µM; at DRB1*1101 (Binding affinity DRB1 *1101) it was above 20 µM; on DRB5*0101 (Binding affinity DRB5 *0101), 4.98 µM.

Consider SDEISFAGIVTKLPT [Peptide 1601.45], for which the IC50 is 0.513 µM against DR1 (DRB1*0101); 8.79 µM at DR4w4 (DRB1*0401); 0.901 µM on DR7 (DRB1*0701); 1.66 µM against DRB1*0301; 2.35 µM against DRB1*0405; 10.7 µM against DRB1*0802. The 50% inhibitory concentration (IC50) against DRB1*0901 was 1.28 µM; against DRB1*1501, 0.791 µM; against DRB3*0101, above 20 µM; at DRB1*1101 (Binding affinity DRB1 *1101), 12.2 µM.

As for `CC[C@H](C)[C@H](NC(=O)[C@@H](NC(=O)[C@@H]1CCCN1C(=O)[C@@H](NC(=O)[C@@H](NC(=O)[C@H](CC(N)=O)NC(=O)CNC(=O)[C@H](CO)NC(=O)[C@H](CS)NC(=O)[C@@H](NC(=O)[C@H](CCCCN)NC(=O)[C@@H](N)CCCNC(=N)N)C(C)C)[C@@H](C)O)[C@@H](C)O)[C@@H](C)CC)C(=O)N[C@@H](Cc1c[nH]cn1)C(=O)N[C@@H](CC(C)C)C(=O)N[C@@H](CCCCN)C(=O)O` [Peptide 1601.43], the 50% inhibitory concentration (IC50) was 1.31 µM on DR1 (DRB1*0101); above 20 µM against DRB1*0301; 9.21 µM against DRB1*0405; 8.06 µM against DRB1*0802; 1.12 µM against DRB1*0901; 0.011 µM at DRB1*1302. The IC50 on DRB1*1501 is 8.05 µM; against DRB3*0101, above 20 µM; at DRB4*0101, 2.1 µM; on DRB1*1101 (Binding affinity DRB1 *1101), above 20 µM; at DRB5*0101 (Binding affinity DRB5 *0101), 18 µM.

Turning to DFLNTVKIPNTVSVS [Peptide 1601.28], the IC50 on DR1 (DRB1*0101) was 0.777 µM; on DR4w4 (DRB1*0401) it was 0.5 µM; at DR7 (DRB1*0701), 0.469 µM; at DRB1*0301, above 20 µM; on DRB1*0405, 11.8 µM; against DRB1*0802 it was 2.09 µM. Moreover, the IC50 against DRB1*0901 is 0.373 µM; at DRB1*1302 it was 0.131 µM; on DRB1*1501, 2.19 µM; at DRB3*0101, above 20 µM; at DRB1*1101 (Binding affinity DRB1 *1101), 0.277 µM; at DRB5*0101 (Binding affinity DRB5 *0101), above 20 µM.

On to QIQVFETLEET [Peptide 1385.01], for which the IC50 on DR1 (DRB1*0101), against DR4w4 (DRB1*0401), at DRB1*0301, against DRB1*1302, on DRB3*0101 and against DRB4*0101 was above 20 µM in each case.

In the case of `CC[C@H](C)[C@H](NC(=O)[C@H](C)NC(=O)[C@@H](NC(=O)[C@@H](NC(=O)[C@H](CC(N)=O)NC(=O)[C@H](CC(C)C)NC(=O)[C@H](Cc1ccccc1)NC(=O)[C@H](CCCCN)NC(=O)[C@@H](NC(=O)[C@H](CCCNC(=N)N)NC(=O)[C@H](CCC(N)=O)NC(=O)[C@H](CCCCN)NC(=O)[C@@H](N)CCC(=O)O)[C@@H](C)O)[C@@H](C)O)C(C)C)C(=O)N1CCC[C@H]1C(=O)N[C@@H](CC(=O)O)C(=O)O` [Peptide 1601.19], the IC50 against DR1 (DRB1*0101) is 0.061 µM; against DR4w4 (DRB1*0401), 4.5 µM; against DR7 (DRB1*0701), 0.123 µM; on DRB1*0301, 11.8 µM; against DRB1*0802, above 20 µM; against DRB1*0901, 0.284 µM. Moreover, the half-maximal inhibitory concentration (IC50) at DRB1*1501 was above 20 µM; against DRB3*0101 it was above 20 µM; at DRB4*0101, 6.45 µM; at DRB1*1101 it was above 20 µM; against DRB5*0101, above 20 µM.

With GRVNTHVHNPLLCSS [Peptide 1601.34], the IC50 against DR1 (DRB1*0101) is 0.873 µM; at DR4w4 (DRB1*0401) it was above 20 µM; against DR7 (DRB1*0701), 6.02 µM; at DRB1*0301, 9.95 µM; against DRB1*0802 it was 2.69 µM; on DRB1*0901, 3.35 µM. In addition, the IC50 against DRB1*1302 is 0.865 µM; at DRB3*0101, above 20 µM; on DRB4*0101, 5.98 µM; on DRB1*1101 (Binding affinity DRB1 *1101) it was above 20 µM; at DRB5*0101 (Binding affinity DRB5 *0101) it was above 20 µM.

As to YENDSTDLRDHIDYW [Peptide 1601.01], the IC50 on DR1 (DRB1*0101) is above 20 µM; at DR4w4 (DRB1*0401), above 20 µM; on DR7 (DRB1*0701), above 20 µM; on DRB1*0301, 15.8 µM; against DRB1*0405, above 20 µM; at DRB1*0802 it was above 20 µM. In addition, the IC50 at DRB1*0901 was above 20 µM; at DRB1*1302 it was above 20 µM; against DRB1*1501, above 20 µM; at DRB3*0101, 8.55 µM; at DRB1*1101 (Binding affinity DRB1 *1101), above 20 µM; on DRB5*0101 (Binding affinity DRB5 *0101) it was above 20 µM.

Turning to STSDDTVSATQIVRQ [Peptide 1601.31], the half-inhibitory concentration (IC50) was 18.1 µM at DR1 (DRB1*0101); 0.558 µM at DR4w4 (DRB1*0401); 5.21 µM at DR7 (DRB1*0701); 3.74 µM at DRB1*0301; above 20 µM against DRB1*0405; above 20 µM against DRB1*0802. The IC50 on DRB1*0901, against DRB1*1302, against DRB1*1501, at DRB3*0101, on DRB1*1101 (Binding affinity DRB1 *1101) and on DRB5*0101 (Binding affinity DRB5 *0101) was above 20 µM each time.

For STWHWTGCNKNTGIL [Peptide 1601.38], the IC50 was above 20 µM on DR1 (DRB1*0101); above 20 µM at DR4w4 (DRB1*0401); above 20 µM at DRB1*0301; 11.7 µM against DRB1*0802; above 20 µM at DRB1*0901; 0.487 µM at DRB1*1302. Moreover, the IC50 on DRB1*1501 is above 20 µM; against DRB3*0101 it was above 20 µM; at DRB4*0101, above 20 µM; on DRB1*1101 (Binding affinity DRB1 *1101) it was 0.662 µM; at DRB5*0101 (Binding affinity DRB5 *0101) it was 16.5 µM.

With RNTFLDVVTIPNSVQ [Peptide 1601.39], the IC50 against DR1 (DRB1*0101) was 0.555 µM; against DR7 (DRB1*0701), 0.27 µM; at DRB1*0301, 6.86 µM; against DRB1*0405, 0.326 µM; against DRB1*0802, 0.776 µM; against DRB1*0901 it was 5.87 µM. Further, the IC50 against DRB1*1501 was 17 µM; at DRB3*0101 it was 12 µM; on DRB1*1101 (Binding affinity DRB1 *1101), 0.371 µM; on DRB5*0101 (Binding affinity DRB5 *0101) it was above 20 µM.

With `CSCC[C@H](NC(=O)[C@H](CS)NC(=O)[C@H](CC(N)=O)NC(=O)[C@H](CC(=O)O)NC(=O)[C@H](CCCCN)NC(=O)[C@H](CC(N)=O)NC(=O)CN)C(=O)N[C@H](C(=O)N[C@@H](Cc1ccc(O)cc1)C(=O)N[C@H](C(=O)N[C@@H](C)C(=O)N[C@@H](Cc1c[nH]c2ccccc12)C(=O)N[C@@H](CC(=O)O)C(=O)N[C@@H](CO)C(=O)N[C@H](C(=O)O)C(C)C)C(C)C)[C@@H](C)O` [Peptide 1601.09], the IC50 against DR1 (DRB1*0101) was 2.23 µM; on DR4w4 (DRB1*0401) it was 2.26 µM; against DR7 (DRB1*0701), 4.39 µM; against DRB1*0301 it was 8.83 µM; at DRB1*0802, 11.5 µM; against DRB1*0901 it was above 20 µM. In addition, the IC50 against DRB1*1302 is above 20 µM; against DRB1*1501, 0.461 µM; against DRB3*0101, above 20 µM; against DRB4*0101, 0.041 µM; on DRB1*1101 (Binding affinity DRB1 *1101), above 20 µM; on DRB5*0101 (Binding affinity DRB5 *0101), above 20 µM.

Consider VHEGIRTYFVQFKDD [Peptide 1601.05], for which the IC50 on DR1 (DRB1*0101) worked out at 9.28 µM; on DR7 (DRB1*0701) it was 5.73 µM; against DRB1*0301 it was 9.33 µM; on DRB1*0802 it was 12.2 µM; against DRB1*0901, 5.86 µM; against DRB1*1501, 0.038 µM. The IC50 was 9.92 µM against DRB3*0101, 1.8 µM at DRB4*0101, above 20 µM on DRB1*1101 (Binding affinity DRB1 *1101) and above 20 µM at DRB5*0101 (Binding affinity DRB5 *0101).

The values are drawn from patent publication US9340577B2, “HLA binding motifs and peptides and their uses” (priority 1992, dated 2016).
